Measurements taken from article PMC2688680, “Identification, expression and characterisation of a Babesia bovis hexose transporter” (Molecular and Biochemical Parasitology, 2008).
Values belong to the molecule of their own block, whether it stands above or below them.

Key:
[1] = biological target: T1, B. bovis hexose transporter 1 (BboHT1) (Babesia bovis, UniProt B0LKY8); test: inhibition of […]D-glucose uptake in Xenopus oocytes expressing BboHT1; assay type: cell-based
T1 construct: full-length, 472 amino acid residues, Israel isolate, expressed in Xenopus laevis oocytes

[2] = biological target: T1, B. bovis hexose transporter 1 (BboHT1); test: radiotracer D-fructose uptake in Xenopus oocytes versus water-injected controls; assay type: cell-based
[3] = biological target: T1, B. bovis hexose transporter 1 (BboHT1); test: competition with […]D-glucose uptake in Xenopus oocytes at […] ([…] reduction); assay type: cell-based
[4] = substrate: OC[C@H]1OC(O)[C@H](O)[C@@H](O)[C@@H]1O; test: radiotracer D-glucose influx kinetics in Xenopus oocytes (Km); assay type: cell-based, Babesia bovis; conditions: hydroxyl positions at O-4 and O-6 important for ligand binding

Ki [1]: 4.1 ± 0.9 µM
Molecule: C=CCCCCCCCCCO[C@H]1[C@H](O)[C@@H](CO)OC(O)[C@@H]1O (stereo partly drawn) [compound 3361, 3-O-(undec-10-en)-yl-D-glucose]

Molecule: OC[C@H]1OC(O)(CO)[C@@H](O)[C@@H]1O (stereo partly drawn) [D-fructose]
radiotracer D-fructose uptake in Xenopus oocytes versus water-injected controls [2]: D-Fructose uptake also increased in oocytes expressing BboHT1 when compared with uptake in water-injected controls

Molecule: OC[C@H]1OC[C@H](O)[C@@H](O)[C@@H]1O [1-DOG, 1-deoxy-D-glucose]
competition with [14C]D-glucose uptake in Xenopus oocytes at 10 mM (>50% reducti) [3]: 1-Deoxy-D-glucose, 2-deoxy-D-glucose, D-mannose (the 2-epimer of glucose), 3-deoxy-D-glucose, and 3-O-methyl-D-glucose all reduced D-glucose uptake via BboHT1

Molecule: OC[C@H]1OC(O)C[C@@H](O)[C@@H]1O (stereo partly drawn) [2-DOG, 2-deoxy-D-glucose]
competition with [14C]D-glucose uptake in Xenopus oocytes at 10 mM (>50% reducti) [3]: 1-Deoxy-D-glucose, 2-deoxy-D-glucose, D-mannose (the 2-epimer of glucose), 3-deoxy-D-glucose, and 3-O-methyl-D-glucose all reduced D-glucose uptake via BboHT1

B1: B. bovis hexose transporter 1 (BboHT1) (Babesia bovis) (protein)
chain: MRSYFVYALALGALVAFNFGLNTVSFVASREFAVMDLGWCAGQDKLYECSRASTYSDIIAAGTFIGGAVGSLLIGYFAKFGRRKGMLIIHIINVIGSCMSTSASCFTMFLLGRLIAGVSVGASGVVAIYLSEICTNESRGKFGIVYPLFICIGQFLMVAWQLLHGRILGADNKVVTMDDLKTFDKFVWRMAQFWPVVFSIIAVVIMVFIVTDDTPYVLLNEGKEEEARSVISKLHGEENADAITAELKADIEAQKANSDKLSLLEALKVAQYRKVIFICCGLGIVQQFSGINIFVANASTLFISIMGRTVIANVMGLVGILCLMVTMISLSFFIEKFGRKTLLLAGIFVSSVFMVPAVIIKLAAGKDAKWAEYIMVTGCMGFMVGFAIGLGGVMWLYLAEAMGAEYKDAGFGLATCANWLFAAIVVMTSGMLIKFNENFTYALYAGFGVLGFVYVALLIKETKGIPLGQAYA
notes: full-length, 472 amino acid residues, Israel isolate, expressed in Xenopus laevis oocytes
Km [4]: 840 ± 540 µM
